Results from patent US20080234262A1 (Wyeth, priority 2007, published 2008).
Where two headings read alike, the source gives them in different places.

Key:
PI3K = PI3K (Homo sapiens, UniProt P42336); test: Fluorescence polarization assay for PI3K; assay type: biochemical;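 also: PI3K kinase reaction on PIP2 with ATP, 30-60 min, product sensed by GST-GRP with red probe in fluorescence polarization (mP), controls without enzyme and at zero time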
Human mTOR (FLAG-TOR) = target: T1, Human mTOR (FLAG-TOR) (Homo sapiens, UniProt P42345); test: Human mTOR kinase assay with purified enzyme, DELFIA format; assay type: biochemical
T1 construct: FLAG

prostate line LNCap = test: In vitro cell culture growth assay (MTS), LNCap; assay type: cell-based, human; details: Homo sapiens, 72 h, LNCap cells, three days after drug treatment
breast line MDA468 = test: In vitro cell culture growth assay (MTS), MDA468; assay type: cell-based, human; details: Homo sapiens, 72 h, MDA468 cells, three days after drug treatment
Summary of the method: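 MDA468 or LNCap cells received inhibitors one day after plating and were grown for three days. Viable cell density read by MTS conversion, absorbance 490 nm, expressed as percent of control growth versus vehicle-treated cells on the same plate.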

Chain of PI3K (P42336 whole entry): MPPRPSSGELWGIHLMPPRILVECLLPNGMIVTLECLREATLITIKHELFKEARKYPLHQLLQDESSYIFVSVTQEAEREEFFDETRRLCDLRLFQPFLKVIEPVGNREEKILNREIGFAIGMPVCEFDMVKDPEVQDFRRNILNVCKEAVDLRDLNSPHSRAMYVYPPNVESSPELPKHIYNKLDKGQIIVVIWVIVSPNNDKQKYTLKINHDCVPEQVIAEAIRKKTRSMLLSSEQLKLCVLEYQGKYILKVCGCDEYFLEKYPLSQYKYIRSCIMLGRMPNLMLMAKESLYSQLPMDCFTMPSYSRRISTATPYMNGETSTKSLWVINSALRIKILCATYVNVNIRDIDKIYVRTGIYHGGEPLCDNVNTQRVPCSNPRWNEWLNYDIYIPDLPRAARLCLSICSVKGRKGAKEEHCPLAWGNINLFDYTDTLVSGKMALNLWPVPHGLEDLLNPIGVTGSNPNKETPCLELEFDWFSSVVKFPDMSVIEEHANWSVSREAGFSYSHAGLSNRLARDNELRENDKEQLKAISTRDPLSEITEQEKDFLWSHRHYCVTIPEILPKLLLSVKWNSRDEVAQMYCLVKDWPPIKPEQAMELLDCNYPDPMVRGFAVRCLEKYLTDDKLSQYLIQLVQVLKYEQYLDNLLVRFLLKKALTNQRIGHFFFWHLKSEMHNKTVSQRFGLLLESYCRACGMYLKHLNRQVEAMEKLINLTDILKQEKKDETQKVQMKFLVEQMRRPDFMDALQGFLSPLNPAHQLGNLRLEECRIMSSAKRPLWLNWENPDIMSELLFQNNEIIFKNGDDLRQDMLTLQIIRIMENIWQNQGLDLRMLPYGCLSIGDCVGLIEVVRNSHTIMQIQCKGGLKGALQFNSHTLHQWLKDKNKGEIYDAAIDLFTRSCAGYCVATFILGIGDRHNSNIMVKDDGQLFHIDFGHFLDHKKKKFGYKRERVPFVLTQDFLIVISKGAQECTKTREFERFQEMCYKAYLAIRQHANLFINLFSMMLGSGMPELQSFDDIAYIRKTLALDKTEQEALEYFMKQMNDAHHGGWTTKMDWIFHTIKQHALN
Chain of PI3K (P27986 whole entry partner): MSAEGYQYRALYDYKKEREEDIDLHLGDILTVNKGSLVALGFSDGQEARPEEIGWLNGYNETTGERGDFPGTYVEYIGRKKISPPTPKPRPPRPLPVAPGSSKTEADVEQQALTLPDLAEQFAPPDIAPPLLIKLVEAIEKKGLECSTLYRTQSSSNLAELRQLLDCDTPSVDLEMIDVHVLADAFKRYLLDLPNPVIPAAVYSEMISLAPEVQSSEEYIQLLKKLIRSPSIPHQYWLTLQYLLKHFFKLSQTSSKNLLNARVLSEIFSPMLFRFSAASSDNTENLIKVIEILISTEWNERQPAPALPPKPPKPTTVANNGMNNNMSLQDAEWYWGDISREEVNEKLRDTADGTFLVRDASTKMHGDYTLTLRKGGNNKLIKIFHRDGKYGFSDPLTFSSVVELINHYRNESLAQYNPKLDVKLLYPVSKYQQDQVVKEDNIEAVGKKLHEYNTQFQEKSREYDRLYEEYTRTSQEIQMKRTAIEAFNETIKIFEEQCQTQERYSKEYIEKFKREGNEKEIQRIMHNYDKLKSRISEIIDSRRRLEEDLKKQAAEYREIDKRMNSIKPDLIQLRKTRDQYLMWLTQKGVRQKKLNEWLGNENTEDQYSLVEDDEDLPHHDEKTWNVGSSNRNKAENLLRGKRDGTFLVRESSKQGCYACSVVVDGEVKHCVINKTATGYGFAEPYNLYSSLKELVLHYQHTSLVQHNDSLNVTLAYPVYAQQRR

| Compound | IC50 (PI3K; PI3Kα, read-out: PI3Kα IC50) [nM] | IC50 (Human mTOR (FLAG-TOR)) [nM] | IC50 (PI3K; PI3Kα, listed as 74, read-out: PI3Kα IC50) [nM] | IC50 (prostate line LNCap; LNCaP) [nM] | IC50 (breast line MDA468) [nM] | IC50 (PI3K; PI3Kα IC50, PI3Kα) [nM] | IC50 (prostate line LNCap) [nM] |
| --- | --- | --- | --- | --- | --- | --- | --- |
| 3-(4-Morpholin-4-yl-1-piperidin-4-yl-1H-pyrazolo[3,4-d]pyrimidin-6-yl)-phenol [Example 5] | 440 | 240 |  |  |  |  |  |
| 4-(6-(3-hydroxyphenyl)-1-phenyl-1H-pyrazolo[3,4-d]pyrimidin-4-yl)morpholin-3-one [Example 73] | 8770 | 380 | 8570 |  |  |  |  |
| 1-Ethyl-3-(4-{1-[1-(4-hydroxy-butyl)-piperidin-4-yl]-4-morpholin-4-yl-1H-pyrazolo[3,4-d]pyrimidin-6-yl}-phenyl)-urea [Example 52] | 1430 | 11.5 |  |  |  |  |  |
| 1-(2-Fluoro-ethyl)-3-(4-{1-[1-(4-hydroxy-butyl)-piperidin-4-yl]-4-morpholin-4-yl-1H-pyrazolo[3,4-d]pyrimidin-6-yl}-phenyl)-urea [Example 54] | 1750 | 29 |  |  |  |  |  |
| 4-(4-morpholin-4-yl-1-phenyl-1H-pyrazolo[3,4-d]pyrimidin-6-yl)aniline [Example 10] |  | 215 |  |  |  |  |  |
| 3-[4-(1,4-oxazepan-4-yl)-1-phenyl-1H-pyrazolo[3,4-d ]pyrimidin-6-yl]phenol [Example 75] | 10000 | ≥ 20000 |  |  |  |  |  |
| 4-{6-[4-(2,3-Dimethyl-isothioureido)-phenyl]-4-morpholin-4-yl-pyrazolo[3,4-d]pyrimidin-1-yl}-piperidine-1-carboxylic acid isopropyl ester [Example 57] | 1700 | 118 |  |  |  |  |  |
| 5-[1-(1-Benzyl-piperidin-4-yl)-4-morpholin-4-yl-1H-pyrazolo[3,4-d]pyrimidin-6-yl]-1,3-dihydro-benzoimidazol-2-one [Example 35] | 8200 | 130 |  |  |  |  |  |
| 1-{4-[1-(1-Benzyl-piperidin-4-yl)-4-morpholin-4-yl-1H-pyrazolo[3,4-d]pyrimidin-6-yl]-phenyl}-3-methyl-thiourea [Example 34] | 1110 | 1200 |  |  |  |  |  |
| 1-(4-{4-(2-hydroxymorpholin-4-yl)-1-[1-(pyridin-3-ylmethyl)piperidin-4-yl]-1H-pyrazolo[3,4-d]pyrimidin-6-yl}phenyl)-3-methylurea [Example 61] | 9130 | 300 |  |  |  |  |  |
| CCCCNC(=O)Nc1ccc(-c2nc(N3CCOCC3)c3cnn(C4CCN(C(=O)c5cccnc5)CC4)c3n2)cc1 [Example 216, 1-butyl-3-(4-{4-morpholin-4-yl-1-[1-(pyridin-3-ylcarbonyl)piperidin-4-yl]-1H-pyrazolo[3,4-d]pyrimidin-6-yl}phenyl)urea] | 446 |  |  | 400 | 1500 |  |  |
| Oc1cccc(-c2nc(N3CCOCC3)c3cnn(CCN4CCNCC4)c3n2)c1 [Compound 166] | 45 |  |  | 5800 | 15000 |  |  |
| COCCCNC(=O)Nc1ccc(-c2nc(N3CCOCC3)c3cnn(C4CCN(Cc5ccccc5)CC4)c3n2)cc1 [Compound 515, 1-{4-[1-(1-benzylpiperidin-4-yl)-4-morpholin-4-yl-1H-pyrazolo[3,4-d]pyrimidin-6-yl]phenyl}-3-(3-methoxypropyl)urea] | 753 |  |  | 600 | 3200 |  |  |
| NNC(=O)Nc1ccc(-c2nc(N3CCOCC3)c3cnn(C4CCN(C(=O)c5cccnc5)CC4)c3n2)cc1 [Compound 551, N-(4-{4-morpholin-4-yl-1-[1-(pyridin-3-ylcarbonyl)piperidin-4-yl]-1H-pyrazolo[3,4-d]pyrimidin-6-yl}phenyl)hydrazinecarboxamide] | 398 |  |  | 10000 | 14000 |  |  |
| COC(=O)N1CCC(n2ncc3c(N4CCOC(C)C4)nc(-c4ccc(NC(=O)Nc5cccnc5)cc4)nc32)CC1 (centres unmarked) [Compound 846, methyl 4-[4-(2-methylmorpholin-4-yl)-6-{4-[(pyridin-3-ylcarbamoyl)amino]phenyl}-1H-pyrazolo[3,4-d]pyrimidin-1-yl]piperidine-1-carboxylate] | 81 |  |  | 58 | 500 |  |  |
| CNC(=O)Nc1ccc(-c2nc(N3CCOCC3)c3cnn(C4CCN(C(=O)OCCF)CC4)c3n2)cc1 [Compound 878, 2-fluoroethyl 4-(6-{4-[(methylcarbamoyl)amino]phenyl}-4-morpholin-4-yl-1H-pyrazolo[3,4-d]pyrimidin-1-yl)piperidine-1-carboxylate] | 54 |  |  | 40 | 120 |  |  |
| O=C(NCCF)Nc1ccc(-c2nc(N3CCOCC3)c3cnn(C4CCN(Cc5cccnc5)CC4)c3n2)cc1F [Compound 619, 1-(2-fluoroethyl)-3-(2-fluoro-4-{4-morpholin-4-yl-1-[1-(pyridin-3-ylmethyl)piperidin-4-yl]-1H-pyrazolo[3,4-d]pyrimidin-6-yl}phenyl)urea] | 619 |  |  | 140 | 1300 |  |  |
| CCNC(=O)Nc1ccc(-c2nc(N3CCOC[C@@H]3C)c3cnn(C4CCN(C(=O)OCC)CC4)c3n2)cc1 [Compound 894, ethyl 4-(6-{4-[(ethylcarbamoyl)amino]phenyl}-4-[(3S)-3-methylmorpholin-4-yl]-1H-pyrazolo[3,4-d]pyrimidin-1-yl)piperidine-1-carboxylate] | 553 |  |  | 100 | 960 |  |  |
| O=C(Nc1ccc(-c2nc(N3CCOCC3)c3cnn(C4CCN(Cc5cccnc5)CC4)c3n2)cc1)Nc1cccs1 [Example 404, 1-(4-{4-morpholin-4-yl-1-[1-(pyridin-3-ylmethyl)piperidin-4-yl]-1H-pyrazolo[3,4-d]pyrimidin-6-yl}phenyl)-3-(2-thienyl)urea] | 9 |  |  | 27 | 100 |  |  |
| c1ccc(CCN2CCC(n3ncc4c(N5CCOCC5)nc(-c5ccc6[nH]ccc6c5)nc43)CC2)cc1 [Compound 239, 6-(1H-indol-5-yl)-4-morpholin-4-yl-1-[1-(2-phenylethyl)piperidin-4-yl]-1H-pyrazolo[3,4-d]pyrimidine] | 3090 |  |  | 780 | 3100 |  |  |
| CNC(=O)Nc1ccc(-c2nc(N3CCOCC3)c3cnn(C4CCN(Cc5ccc(F)nc5)CC4)c3n2)cc1 [Example 387, 1-[4-(1-{1-[(6-fluoropyridin-3-yl)methyl]piperidin-4-yl}-4-morpholin-4-yl-1H-pyrazolo[3,4-d]pyrimidin-6-yl)phenyl]-3-methylurea] | 109 |  |  | 35 | 100 |  |  |
| O=C(NCCCc1ccccc1)Nc1ccc(-c2nc(N3CCOCC3)c3cnn(C4CCN(Cc5ccccc5)CC4)c3n2)cc1 [Compound 506, 1-{4-[1-(1-benzylpiperidin-4-yl)-4-morpholin-4-yl-1H-pyrazolo[3,4-d]pyrimidin-6-yl]phenyl}-3-(3-phenylpropyl)urea] | 7030 |  |  | 4500 | > 60000 |  |  |
| Nc1ccc(-c2nc(N3CCOCC3)c3cnn(C4CCN(Cc5cccnc5)CC4)c3n2)cn1 [Example 210, 5-{4-morpholin-4-yl-1-[1-(pyridin-3-ylmethyl)piperidin-4-yl]-1H-pyrazolo[3,4-d]pyrimidin-6-yl}pyridin-2-amine] | 108 |  |  | 200 | 1100 |  |  |
| CC(=O)Nc1ccc(-c2nc(N3CCOCC3)c3cnn(Cc4ccccc4)c3n2)cc1 [Compound 180] | 405 |  |  | 2000 | 5800 |  |  |
| O=S(=O)(c1ccccc1)N1CCC(n2ncc3c(N4CCOCC4)nc(-c4ccc5[nH]ccc5c4)nc32)CC1 [Compound 92] | 4640 |  |  | 8000 | 2500 |  |  |
| O=CN1CCC(n2ncc3c(N4CCOCC4)nc(-c4ccc5[nH]ccc5c4)nc32)CC1 [Compound 518, 4-[6-(1H-indol-5-yl)-4-morpholin-4-yl-1H-pyrazolo[3,4-d]pyrimidin-1-yl]piperidine-1-carbaldehyde] | 2800 |  |  | 1000 | 3000 |  |  |
| O=C(c1ccc(Cl)nc1)N1CCC(n2ncc3c(N4CCOCC4)nc(-c4ccc5[nH]ccc5c4)nc32)CC1 [Example 196, 1-{1-[(6-chloropyridin-3-yl)carbonyl]piperidin-4-yl}-6-(1H-indol-5-yl)-4-morpholin-4-yl-1H-pyrazolo[3,4-d]pyrimidine] | 1280 |  |  | 750 | 3000 |  |  |
| COC(=O)N1CCC(n2ncc3c(N4CCOCC4)nc(-c4ccc(NC(=O)Oc5ccccc5)cc4)nc32)CC1 [Compound 945, methyl 4-(4-morpholin-4-yl-6-{4-[(phenoxycarbonyl)amino]phenyl}-1H-pyrazolo[3,4-d]pyrimidin-1-yl)piperidine-1-carboxylate] |  |  |  |  | 20000 | > 10000 | 5000 |
| OCCN1CCC(n2ncc3c(N4CCOCC4)nc(-c4ccc5[nH]ccc5c4)nc32)CC1 [Compound 246, 2-{4-[6-(1H-indol-5-yl)-4-morpholin-4-yl-1H-pyrazolo[3,4-d]pyrimidin-1-yl]piperidin-1-yl}ethanol] | 3990 |  |  | 1800 | 3000 |  |  |
| CNC(=O)Nc1ccc(-c2nc(N3CCOCC3)c3cnn(C4CCN(C(=O)c5cccc(Cl)c5)CC4)c3n2)cc1 [Compound 604, 1-(4-{1-[1-(3-chlorobenzoyl)piperidin-4-yl]-4-morpholin-4-yl-1H-pyrazolo[3,4-d]pyrimidin-6-yl}phenyl)-3-methylurea] | 53 |  |  | < 27 | 50 |  |  |
